Assay results published in patent US20260014192A1, “COMPOSITIONS AND USES THEREOF” (Optibiotix Limited, priority 2022, published 2026).

Columns and labels:
[1] = tested on: gut microbiome; assay: pH-controlled anaerobic faecal cultures: organic acid production; assay type: cell-based; conditions: FIG. 3C
Description: pH-controlled, anaerobic, faecal cultures were carried out to evaluate the impact of each test carbohydrate on gut microbiome composition and activity (organic acid production). The test carbohydrates were as follows: Inulin, Fructooligosaccharides (FOS), Xylooligosaccharides (XOS), gentiooligosaccharides (GeOS) and cellobiose.
(§1) All carbohydrates were tested in parallel, using the same faecal sample from a healthy donor. Fermentations were repeated using the faecal samples of each of 6 donors. Faeces in the absence of test substrate were used as the negative control in each run.

[2] = tested on: gut microbiome; assay: Non pH-controlled anaerobic faecal cultures: gas production; assay type: cell-based; conditions: 6 donors, FIG. 1A
Description: Non pH-controlled, anaerobic, faecal cultures were investigated to evaluate the rate of gas production and cumulative gas production over 24 h in the presence of each test substrate.
as §1

## O=C[C@H](O)[C@@H](O)[C@H](O[C@@H]1O[C@H](CO)[C@@H](O)[C@H](O)[C@H]1O)[C@H](O)CO [Cellobiose, cellobiose]
[1]
  lactate production / accumulation: high levels
[2]
  rate of gas production: significantly higher compared to all test substrates
